Source: patent publication US8716242B2, “β-hairpin peptidomimetics” (priority 2009, dated 2014)
Numbered stars: 1 amine (or outer) side, 2 acyl side, 3 side chain; on linkers, the order of the positions; unused ones are H or OH. Bridge positions count the residues as written; N and C are the ends. Square brackets hold non-standard residues; d marks the D form. Side chains are listed from the residue outwards. Peptide text beside a SMILES is read from it. * marks the point of attachment. γGlu = O=C(O)[C@H](CCC(=O)[*:2])N[*:1]; Palmitoyl = CCCCCCCCCCCCCCCC(=O)*; Dab = NCC[C@H](N)C(=O)O

Legend:
[1] = Plasma stability in mouse plasma; type: in vitro ADME; conditions: mouse plasma, 37° C.
Method in brief: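 Peptides (1 mM DMSO/H2O stock) were spiked into human or mouse plasma in triplicate and incubated at 37 °C, sampling from 0 to 1440 min. Samples were quenched in formic acid/acetonitrile and analysed by LC/MS MRM. Remaining percent of t=0 was calculated and T1/2 derived by trend fitting.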

in vivo = assay: in vivo; design: species or system male CD-1 mice; conditions: for AUC0-∞ dcor. / Cmax dcor.: mouse
Method: 2.7. Pharmacokinetic Study (PK)
Pharmacokinetic study after intravenous (i.v.) and subcutaneous (s.c.) administration was performed for the compounds of Ex. 17, Ex. 20, Ex. 25, Ex. 26, Ex. 28, and Ex. 29. […] The compounds of Ex. 17, Ex. 25, Ex. 26, Ex. 28, and Ex. 29 were administered i.v. and s.c. as a cassette whereas for the compound of Ex. 20a single i.v. and s.c. administration was accomplished.
30 grams (±20%) male CD-1 mice obtained from Janvier, France, were used in the study testing the cassette compounds. The vehicle, phosphate buffered saline containing 5% DMSO, was added to give a final concentration of 0.5 mg/mL of the compounds (i.v. route and s.c. route). The volume was 2 mL/kg i.v. and 10 mL/kg s.c. and the cassette compounds were injected to give a final intravenous dose of 1 mg/kg and an subcutaneous dose of 5 mg/kg. Approximately 500 μL of blood were removed from the opened heart at predetermined time intervals (5, 15, 30 min and 1, 2, 4, 8 and 12 hours for the i.v. study and 5, 15, 30 min and 1, 2, 4, 8, 12 and 24 hours for the s.c. study) and added to heparinized tubes. Plasma was removed from pelleted cells upon centrifugation and frozen at −80° C. prior to HPLC-MS analysis. For the compound of Ex. 20 30 grams (±20%) male CD-1 mice obtained from Charles River Laboratories Deutschland GmbH were used. The vehicle, phosphate buffered saline, was added to give a final concentration of 0.2 mg/mL of the compound (i.v. route) and 1 mg/mL (s.c. route). The volume was 5 mL/kg i.v. and s.c. and the compound was injected to give a final intravenous dose of 1 mg/kg and an subcutaneous dose of 5 mg/kg. Approximately 300-400 μL of blood was removed under light isoflurane anesthesia by cardiac puncture at predetermined time intervals (5, 15, 30 min and 1, 2, 3, 4, 6, 12 hours for the i.v. study and 15, min and 1, 2, 4, 6, 8, 12 and 24 hours for the s.c. study) and added to heparinized tubes. Plasma was removed from pelleted cells upon centrifugation and frozen at −80° C. prior to HPLC-MS analysis.
Preparation of the Plasma Calibration Samples
“Blank” mouse plasma from untreated animals was used. Aliquots of plasma of 0.2 mL each were spiked with 50 ng of propranolol (Internal Standard, IS), (sample preparation by solid phase extraction on OASIS® HLB cartridges [Waters]) and with known amounts of Ex. 20 in order to obtain 9 plasma calibration samples in the range 10-5000 nM. The OASIS® HLB cartridges were conditioned with 1 mL of methanol and then with 1 mL of 1% NH3 in water. Samples were then diluted with 700 μL of 1% NH3 in water and loaded. The plate was washed with 1 mL of methanol/1% NH3 in water 5/95 (v/v). Elution was performed using 1 mL of 0.1% TFA in methanol.
The plate containing eluates was introduced into the concentrator system and taken to dryness. The residues were dissolved in 100 μL of formic acid 0.1%/acetonitrile, 95/5 (v/v) and analysed in the HPLC/MS on a reverse phase analytical column (Jupiter C18, 50×2.0 mm, 5 μm, Phenomenex), using gradient elution (mobile phases A: 0.1% formic acid in water, B: acetonitrile; from 5% B to 100% B in 2 min.).
Preparation of Plasma Samples
Samples coming from animal treatments were pooled in order to obtain an appropriate volume for the extraction. If the total volume obtained was less than 0.2 mL the appropriate amount of “blank” mouse plasma was added in order to keep the matrix identical to the calibration curve. Samples were than spiked with IS and processed as described for the calibration curve.
Pharmacokinetic Evaluation
In order to perform PK analysis pooled plasma data (n=3 mice) was used. PK parameters were calculated by WinNonLin™ software version 5.2.1 (Pharsight—A Certara™ Company, Mountain View, Calif. 94041 USA) using non-compartmental analysis with a linear up/log down trapezoidal calculation method. For the terminal elimination phase at least 3 time points and a correlation coefficient greater than 0.85 was used. […]

CCCCCCCCCCCCCCCC(=O)N[C@@H](CCC(=O)NCCCC[C@@H]1NC(=O)[C@H](Cc2ccc(O)cc2)NC(=O)[C@@H]2CSSC[C@H](NC(=O)[C@H](Cc3ccc(O)cc3)NC(=O)[C@H](Cc3c[nH]cn3)NC(=O)[C@H](Cc3ccc(O)cc3)NC(=O)[C@@H]3CCCN3C(=O)[C@H]3CCCN3C(=O)[C@H](CCCCN)NC1=O)C(=O)N[C@@H](CO)C(=O)N[C@@H](C)C(=O)N1CCC[C@@H]1C(=O)N[C@@H](CCN)C(=O)N[C@@H](CCCNC(=N)N)C(=O)N[C@@H](Cc1ccc(O)cc1)C(=O)N2)C(=O)O [Ex. 29] (cyclo(YHYCSA[dP][Dab]RYCYK([γGlu-Palmitoyl])K[dP]P); disulfide 4-11)
remaining at 24 h, 10 μM ([1]; 1440 min, read-out: mouse pl. cpd left at 1440 min): 53% | mouse pl. T1/2 ([1]; up to 1440 min): 24 h | bioavailability (in vivo; male, CD-1, mouse): 151% | AUC(0-inf) (in vivo; male, CD-1, mouse, iv, 1 mg/kg): 2940 ng·h/mL | Cmax (in vivo; male, CD-1, mouse, iv, 1 mg/kg): 2320 ng/mL | Tmax (in vivo; male, CD-1, mouse, iv, 1 mg/kg): 0.1 h | half-life (in vivo; male, CD-1, mouse, iv, 1 mg/kg): 3.6 h | level at 0.083 h (in vivo; male, CD-1, mouse, iv, 1 mg/kg): 2320 ng/mL | level at 0.25 h (in vivo; male, CD-1, mouse, iv, 1 mg/kg): 1820 ng/mL | level at 0.5 h (in vivo; male, CD-1, mouse, iv, 1 mg/kg): 1730 ng/mL | level at 1 h (in vivo; male, CD-1, mouse, iv, 1 mg/kg): 1500 ng/mL | level at 2 h (in vivo; male, CD-1, mouse, iv, 1 mg/kg): 87 ng/mL | level at 4 h (in vivo; male, CD-1, mouse, iv, 1 mg/kg): 114 ng/mL | level at 8 h (in vivo; male, CD-1, mouse, iv, 1 mg/kg): 35 ng/mL | level at 12 h (in vivo; male, CD-1, mouse, iv, 1 mg/kg): 16 ng/mL | AUC(0-inf) (in vivo; male, CD-1, mouse, sc, 5 mg/kg): 22200 ng·h/mL | Cmax (in vivo; male, CD-1, mouse, sc, 5 mg/kg): 1600 ng/mL | Tmax (in vivo; male, CD-1, mouse, sc, 5 mg/kg): 8 h | half-life (in vivo; male, CD-1, mouse, sc, 5 mg/kg): 4.7 h | level at 0.25 h (in vivo; male, CD-1, mouse, sc, 5 mg/kg): 9 ng/mL | level at 0.5 h (in vivo; male, CD-1, mouse, sc, 5 mg/kg): 41 ng/mL | level at 1 h (in vivo; male, CD-1, mouse, sc, 5 mg/kg): 137 ng/mL | level at 2 h (in vivo; male, CD-1, mouse, sc, 5 mg/kg): 1050 ng/mL | level at 4 h (in vivo; male, CD-1, mouse, sc, 5 mg/kg): 958 ng/mL | level at 8 h (in vivo; male, CD-1, mouse, sc, 5 mg/kg): 1600 ng/mL | level at 12 h (in vivo; male, CD-1, mouse, sc, 5 mg/kg): 1430 ng/mL | level at 24 h (in vivo; male, CD-1, mouse, sc, 5 mg/kg): 175 ng/mL | AUC0-∞ dcor. (in vivo; iv, 1 mg/kg): 2945.0 kg·ng·h/mg/mL | Cmax dcor. (in vivo; iv, 1 mg/kg): 2317.0 kg·ng/mg/mL | AUC0-∞ dcor. (in vivo; sc, 5 mg/kg): 4436.2 kg·ng·h/mg/mL | Cmax dcor. (in vivo; sc, 5 mg/kg): 320.6 kg·ng/mg/mL
